11 compounds from ChEMBL document CHEMBL1201862, “PubChem BioAssay data set” (2004) can be followed below.

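All cell lines were grown in 96-well plates and treated with compound for 48 hours. Abbreviation: GI50, concentration required for 50% inhibition of growth.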 The source made the active and inactive calls. Rule as the data show it: active = GI50 up to about 1.1 µM and inactive = higher.

Test systems include PC-3; COLO 205; U-251; SNB-75; NCI-H226; HOP-62; SK-OV-3; HOP-92; HCT-15; IGROV-1; SN12C; T47D; Malme-3M; BT-549; MDA-N; NCI-H522; CCRF-CEM; DU-145; OVCAR-5.
Common to all, as to experiment: inhibition of tumour cell growth, NCI panel, 48 h

On to `c1coc(C2=Nc3cccc4cccc(c34)N2)c1`, for which the GI50 in the assay on PC-3 was 24.2 µM (inactive); in the assay with COLO 205, 14.8 µM (inactive); in the assay with U-251, 69 µM (inactive); with SNB-75 it was 65.5 µM (inactive); with NCI-H226, > 100 µM (inactive); in the assay with HOP-62, > 100 µM (inactive). Moreover, the GI50 with SK-OV-3 is 98.4 µM (inactive); in the assay with HOP-92 it was 25.5 µM (inactive); in the assay with HCT-15, 26.5 µM; in the assay with IGROV-1, > 100 µM (inactive); with SN12C, 28.4 µM (inactive); with T47D, 8.49 µM (inactive). Moreover, the GI50 in the assay with Malme-3M is 93.8 µM (inactive); in the assay with BT-549 it was 44.5 µM (inactive); with MDA-N, 41.1 µM (inactive); in the assay with NCI-H522 it was 11.2 µM (inactive); in the assay on CCRF-CEM, 32.1 µM (inactive); in the assay on DU-145, > 100 µM (inactive).
Take `COc1cc2c(cc1OC)C13CC[N+]4(C)CC5=CCOC6CC(=O)N2C1C6C5CC34[O-]` (stereo not given): the GI50 in the assay on PC-3, in the assay with COLO 205, with U-251, with SNB-75, in the assay with NCI-H226 and in the assay on HOP-62 was > 100 µM (inactive) each time. In addition, the GI50 is > 100 µM (inactive) in the assay with SK-OV-3; > 100 µM (inactive) in the assay on HOP-92; more than 100 µM in the assay with HCT-15; > 100 µM (inactive) in the assay with IGROV-1; > 100 µM (inactive) in the assay on SN12C; > 100 µM (inactive) in the assay with T47D. In addition, the GI50 with Malme-3M, in the assay with BT-549, with MDA-N, with NCI-H522, in the assay on CCRF-CEM and with DU-145 was > 100 µM (inactive) throughout.
For the compound `CN(C)CCCCN1c2ccccc2Sc2cc(N=[N+]=[N-])ccc21`, the GI50 in the assay on PC-3 is 1.86 µM (inactive); in the assay on COLO 205, 1.69 µM (inactive); in the assay with U-251, 2.04 µM (inactive); in the assay with SNB-75, 1.8 µM (inactive); in the assay on NCI-H226 it was 3.28 µM (inactive); in the assay with HOP-62 it was 2.28 µM (inactive). Further, the GI50 in the assay with SK-OV-3 is 2.2 µM (inactive); with HOP-92 it was 2.74 µM (inactive); with HCT-15, 1.85 µM; in the assay with IGROV-1 it was 1.73 µM (inactive); in the assay with SN12C it was 3.48 µM (inactive); with T47D it was 1.94 µM (inactive). The GI50 in the assay with Malme-3M was 1.82 µM (inactive); in the assay on OVCAR-5, 1.89 µM (inactive); in the assay with BT-549, 11 µM (inactive); with MDA-N, 1.72 µM (inactive); in the assay with NCI-H522, 1.6 µM (inactive); in the assay on CCRF-CEM, 2.01 µM (inactive). Also, in the assay with DU-145, the GI50 is 2.1 µM (inactive).
Take `O=[N+]([O-])c1ccc(-n2nc3ccc4nonc4c3n2)cc1`: the GI50 was 74.3 µM (inactive) in the assay with PC-3; > 100 µM (inactive) with COLO 205; 77.1 µM (inactive) in the assay on U-251; 11.1 µM (inactive) with SNB-75; 17.8 µM (inactive) with NCI-H226; 16.6 µM (inactive) in the assay with HOP-62. Moreover, the GI50 with SK-OV-3 was 20 µM (inactive); in the assay with HOP-92, 19.6 µM (inactive); with HCT-15 it was more than 100 µM; in the assay with IGROV-1, 27.9 µM (inactive); with SN12C it was > 100 µM (inactive); with T47D it was 29.6 µM (inactive). Also, the GI50 in the assay with Malme-3M was 24.2 µM (inactive); in the assay on OVCAR-5, > 100 µM (inactive); with BT-549, 22.7 µM (inactive); in the assay on MDA-N, > 100 µM (inactive); in the assay on NCI-H522, 28.8 µM (inactive); in the assay on CCRF-CEM, > 100 µM (inactive). Also, the GI50 with DU-145 is 79.6 µM (inactive).
As for `O=[N+]([O-])c1ccc(Sc2c3ccccc3nc3ccccc23)nc1`, the GI50 with PC-3 was 14.8 µM (inactive); with COLO 205, 2.37 µM (inactive); with U-251, 24.3 µM (inactive); in the assay with SNB-75 it was 15.6 µM (inactive); in the assay on NCI-H226 it was 16.3 µM (inactive); with HOP-62, 23.3 µM (inactive). The GI50 with SK-OV-3 was 13.2 µM (inactive); with HOP-92 it was 1.95 µM (inactive); in the assay with HCT-15, 4 µM; with IGROV-1, 16.7 µM (inactive); in the assay with SN12C it was 13.2 µM (inactive); with T47D it was 2.57 µM (inactive). The GI50 with Malme-3M was 2.11 µM (inactive); in the assay on OVCAR-5, 18.6 µM (inactive); in the assay with BT-549, 14.1 µM (inactive); with MDA-N it was 5.12 µM (inactive); in the assay on NCI-H522 it was 2.73 µM (inactive); in the assay on CCRF-CEM, 2.51 µM (inactive). In addition, the GI50 in the assay on DU-145 is 6.93 µM (inactive).
For the compound `CO/C(N)=C(C#N)/N=C/c1ccccc1`, the GI50 with PC-3 is > 100 µM (inactive); with COLO 205, 71.9 µM (inactive); in the assay on U-251 it was > 100 µM (inactive); with SNB-75, > 100 µM (inactive); in the assay with NCI-H226 it was > 100 µM (inactive); in the assay with HOP-62, > 100 µM (inactive). For the same compound, the GI50 in the assay on SK-OV-3 is > 100 µM (inactive); in the assay on HOP-92, > 100 µM (inactive); in the assay on HCT-15, more than 100 µM; in the assay with IGROV-1 it was > 100 µM (inactive); with SN12C, > 100 µM (inactive); in the assay on T47D, > 100 µM (inactive). Moreover, the GI50 in the assay with Malme-3M is 40.3 µM (inactive); in the assay on OVCAR-5 it was > 100 µM (inactive); in the assay on BT-549, > 100 µM (inactive); in the assay on MDA-N, > 100 µM (inactive); in the assay with NCI-H522 it was > 100 µM (inactive); in the assay on CCRF-CEM it was 50 µM (inactive). Further, the GI50 in the assay on DU-145 was > 100 µM (inactive).
Consider `CC(C)(C)c1cc(C(=O)/C=C/c2ccc(O)c(O)c2O)cc(C(C)(C)C)c1O`, for which the GI50 in the assay with PC-3 is 3.67 µM (inactive); in the assay with COLO 205, 11.8 µM (inactive); with U-251 it was 2.79 µM (inactive); with SNB-75, 1.95 µM (inactive); with NCI-H226, 14.1 µM (inactive); in the assay on HOP-62 it was 7.08 µM (inactive). The GI50 is 3.87 µM (inactive) with SK-OV-3; 5.68 µM (inactive) with HOP-92; 0.991 µM in the assay with HCT-15; 6 µM (inactive) in the assay with IGROV-1; 2.8 µM (inactive) in the assay on SN12C; 2 µM (inactive) in the assay with T47D. The GI50 in the assay with Malme-3M is 11.5 µM (inactive); with OVCAR-5, 17.5 µM (inactive); in the assay on BT-549, 7.4 µM (inactive); in the assay on MDA-N, 4.38 µM (inactive); in the assay with NCI-H522 it was 1.08 µM (active); with CCRF-CEM it was 1.73 µM (inactive). For the same compound, the GI50 with DU-145 was 10.5 µM (inactive).
Turning to `CCOc1cc2c(OCc3ccccc3)cc3c4cc(OC)c(OC)cc4c[n+](C)c3c2cc1OC`, the GI50 with PC-3 is 1.66 µM (inactive); with COLO 205, 0.259 µM (active); in the assay on U-251 it was 0.601 µM (active); in the assay on SNB-75, 0.442 µM (active); with NCI-H226 it was 1.5 µM (inactive); with HOP-62, 2.99 µM (inactive). Besides, the GI50 in the assay on SK-OV-3 is 3.02 µM (inactive); with HOP-92 it was 0.361 µM (active); in the assay on HCT-15, 59.6 µM; in the assay on SN12C, 0.471 µM (active); in the assay on T47D, 0.446 µM (active); with Malme-3M, 0.986 µM (active). In addition, the GI50 is 7.13 µM (inactive) in the assay on OVCAR-5; 0.789 µM (active) in the assay with BT-549; 0.857 µM (active) in the assay on MDA-N; 0.391 µM (active) with NCI-H522; 0.494 µM (active) in the assay on CCRF-CEM; 3.62 µM (inactive) in the assay on DU-145.
For the compound `O=C1/C(=C/c2ccccc2)CCC/C1=C\c1ccc(O)c(CN2CCCCC2)c1`, the GI50 with PC-3 was 4.56 µM (inactive); in the assay on COLO 205, 5.89 µM (inactive); in the assay on U-251 it was 3.17 µM (inactive); in the assay on SNB-75, 6.37 µM (inactive); with NCI-H226, 6.41 µM (inactive); in the assay with HOP-62, 13.5 µM (inactive). Besides, the GI50 was 9.1 µM (inactive) in the assay with SK-OV-3; 4.55 µM (inactive) in the assay with HOP-92; 1.78 µM with HCT-15; 3.72 µM (inactive) in the assay on IGROV-1; 2.82 µM (inactive) in the assay with SN12C; 4.88 µM (inactive) with T47D. The GI50 was 11.4 µM (inactive) in the assay on Malme-3M; 15.3 µM (inactive) in the assay with OVCAR-5; 2.84 µM (inactive) in the assay with BT-549; 2.56 µM (inactive) in the assay with MDA-N; 2.24 µM (inactive) with NCI-H522; 3.3 µM (inactive) with CCRF-CEM. For the same compound, the GI50 with DU-145 was 2.62 µM (inactive).
As for `CN(C)CCCNc1ccnc2cccc([N+](=O)[O-])c12`, the GI50 with PC-3 was 14.3 µM (inactive); in the assay with COLO 205, 3.73 µM (inactive); with U-251 it was 15.7 µM (inactive); with SNB-75 it was 24.1 µM (inactive); in the assay with NCI-H226, 15.3 µM (inactive); with HOP-62, 18.1 µM (inactive). Moreover, the GI50 in the assay with SK-OV-3 is 2.52 µM (inactive); in the assay with HOP-92, 10.6 µM (inactive); in the assay on HCT-15 it was 8.41 µM; in the assay on IGROV-1, 12.1 µM (inactive); in the assay with SN12C, 15.8 µM (inactive); in the assay with T47D it was 34.3 µM (inactive). Further, the GI50 with Malme-3M is 8.18 µM (inactive); in the assay on OVCAR-5, 23 µM (inactive); in the assay on BT-549 it was 21.8 µM (inactive); in the assay on MDA-N, 17.2 µM (inactive); in the assay with NCI-H522, 7.96 µM (inactive); with CCRF-CEM, 28.9 µM (inactive). In addition, the GI50 in the assay on DU-145 was 29 µM (inactive).
For the compound `C=C1C(=O)OC2(C)CCC1CC1OC1(C)CCC=C(C)CCC2O` (stereo not given), the GI50 with PC-3, with COLO 205, in the assay with U-251, in the assay with SNB-75, with NCI-H226 and in the assay on SK-OV-3 was > 100 µM (inactive) each time. Besides, the GI50 was > 100 µM (inactive) in the assay on HOP-92; 69.3 µM in the assay on HCT-15; > 100 µM (inactive) in the assay with IGROV-1; 37.1 µM (inactive) in the assay with SN12C; > 100 µM (inactive) with T47D; > 100 µM (inactive) with Malme-3M. In addition, the GI50 was > 100 µM (inactive) in the assay on OVCAR-5; 6.24 µM (inactive) in the assay on BT-549; 25.5 µM (inactive) with MDA-N; 64.7 µM (inactive) in the assay with NCI-H522; 7.08 µM (inactive) in the assay with CCRF-CEM; 55 µM (inactive) with DU-145.
